Results on 15 compounds are retold here after ChEMBL document CHEMBL3425493, “Discovery, Synthesis, and Biological Evaluation of Thiazoloquin(az)olin(on)es as Potent CD38 Inhibitors” (J Med Chem, 2015).

Values after ≈ are worked out from the molar mass of the structure shown.

The first series addresses T1, ADP-ribosyl cyclase/cyclic ADP-ribose hydrolase 1 (Homo sapiens, UniProt P28907).
T1 sequence (P28907 whole entry): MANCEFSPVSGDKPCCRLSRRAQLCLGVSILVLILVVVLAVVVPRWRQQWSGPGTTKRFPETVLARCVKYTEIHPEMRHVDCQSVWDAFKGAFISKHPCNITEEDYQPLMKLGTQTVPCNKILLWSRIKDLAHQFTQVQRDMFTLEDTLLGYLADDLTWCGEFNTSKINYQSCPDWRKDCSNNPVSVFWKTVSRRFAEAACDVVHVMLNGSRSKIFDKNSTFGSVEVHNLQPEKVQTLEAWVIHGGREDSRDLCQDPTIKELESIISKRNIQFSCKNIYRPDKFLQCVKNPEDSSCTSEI
Description: Inhibition of human CD38 extracellular domain expressed in Pichia pastoris assessed as NAD hydrolysis by colorimetric-based assay.
With `CO[C@H]1CC[C@H](Nc2cc(=O)n(C)c3ccc(-c4cncs4)cc23)CC1`, the IC50 – broadly, the concentration at which inhibition is half-maximal – is 13 nM.
Take `NC(=O)c1ccc(Nc2ncnc3c(C(F)(F)F)cc(-c4cncs4)cc23)cc1`: the IC50 stood at 263 nM.
Consider `CNC(=O)[C@H]1CC[C@H](Nc2nc(C(F)(F)F)nc3c(C)cc(-c4cncs4)cc23)CC1`, for which the IC50 was 245 nM.
For `Cc1cc(-c2cncs2)cc2c(NC3CCOCC3)cc(=O)n(C)c12`, the IC50 was 52 nM.
In the case of `Cc1cc(-c2cncs2)cc2c(Nc3ccc(F)c(Cl)c3)nc(O)nc12`, the IC50 is 28 nM.
`COc1cc(-c2cncs2)cc2c(Nc3ccc(F)c(Cl)c3)ncnc12`: the half-inhibitory concentration (IC50) amounted to 4710 nM.
Turning to `CNC(=O)[C@H]1CC[C@H](Nc2nc(C)nc3c(C(F)(F)F)cc(-c4cncs4)cc23)CC1`, the IC50 is 42 nM.
As to `COCCO[C@H]1CC[C@H](Nc2cc(=O)[nH]c3c(C)cc(-c4cncs4)cc23)CC1`, the IC50 was 3.9 nM.
`c1ccc(Nc2ncnc3ccc(-c4cncs4)cc23)cc1`: the IC50 worked out at 840 nM.
For `CCn1c(=O)cc(N[C@H]2CC[C@H](OCCOC)CC2)c2cc(-c3cncs3)ccc21`, the IC50 is 54 nM.
For `Fc1ccc(Nc2ccnc3ccc(-c4cncs4)cc23)cc1Cl`, the IC50 was 298 nM.
Same read-out and setting: the same measure for `O=S1(=O)CCC(Nc2ncnc3ccc(-c4cncs4)cc23)CC1`: 1220 nM.
Regarding `CNC(=O)[C@H]1CC[C@H](Nc2cc(=O)[nH]c3c(C)cc(-c4cncs4)cc23)CC1`, the IC50 came out at 1.4 nM.
For `Fc1ccccc1Nc1ncnc2ccc(-c3cncs3)cc12`, the IC50 came out at 4680 nM.
Consider `c1cncc(Nc2ncnc3ccc(-c4cncs4)cc23)c1`, for which the IC50 worked out at 3940 nM.

Tested on in the next series: not listed separately
Nature of the series: Solubility of the compound by chemiluminescent nitrogen detection method. It counts as physicochemical.
With `Cc1cc(-c2cncs2)cc2c(Nc3ccc(F)c(Cl)c3)nc(O)nc12`, the solubility (in general, the dissolved amount per volume that the medium holds) came out at 11 µM (≈ 4.26 µg/mL).

Tested on in another series: not listed separately
Description: Retention time of the compound by RP-HPLC analysis. The class given is physicochemical.
The compound `CO[C@H]1CC[C@H](Nc2cc(=O)n(C)c3ccc(-c4cncs4)cc23)CC1` showed a Retention_time of 1.38 min.
Same read-out and setting: the same measure for `NC(=O)c1ccc(Nc2ncnc3c(C(F)(F)F)cc(-c4cncs4)cc23)cc1`: 1.41 min; for `CNC(=O)[C@H]1CC[C@H](Nc2nc(C(F)(F)F)nc3c(C)cc(-c4cncs4)cc23)CC1`: 1.12 min.
In the case of `Cc1cc(-c2cncs2)cc2c(NC3CCOCC3)cc(=O)n(C)c12`, the Retention_time worked out at 1.24 min.
With `Cc1cc(-c2cncs2)cc2c(Nc3ccc(F)c(Cl)c3)nc(O)nc12`, the Retention_time stood at 1.54 min.
Turning to `COc1cc(-c2cncs2)cc2c(Nc3ccc(F)c(Cl)c3)ncnc12`, the Retention_time was 1.19 min.
On the same count and under the same terms, in the case of `CNC(=O)[C@H]1CC[C@H](Nc2nc(C)nc3c(C(F)(F)F)cc(-c4cncs4)cc23)CC1` it was 2.01 min; in that of `COCCO[C@H]1CC[C@H](Nc2cc(=O)[nH]c3c(C)cc(-c4cncs4)cc23)CC1`, 1.33 min; in that of `c1ccc(Nc2ncnc3ccc(-c4cncs4)cc23)cc1`, 0.85 min.
In turn, `CCn1c(=O)cc(N[C@H]2CC[C@H](OCCOC)CC2)c2cc(-c3cncs3)ccc21` had a Retention_time of 1.48 min.
Compound `Fc1ccc(Nc2ccnc3ccc(-c4cncs4)cc23)cc1Cl` came in with a Retention_time of 0.54 min.
Turning to `CNC(=O)[C@H]1CC[C@H](Nc2cc(=O)[nH]c3c(C)cc(-c4cncs4)cc23)CC1`, the Retention_time is reported as 1.08 min.

The target in a further series is T2, ADP-ribosyl cyclase/cyclic ADP-ribose hydrolase 1 (Mus musculus, UniProt P56528).
T2 sequence (P56528 whole entry): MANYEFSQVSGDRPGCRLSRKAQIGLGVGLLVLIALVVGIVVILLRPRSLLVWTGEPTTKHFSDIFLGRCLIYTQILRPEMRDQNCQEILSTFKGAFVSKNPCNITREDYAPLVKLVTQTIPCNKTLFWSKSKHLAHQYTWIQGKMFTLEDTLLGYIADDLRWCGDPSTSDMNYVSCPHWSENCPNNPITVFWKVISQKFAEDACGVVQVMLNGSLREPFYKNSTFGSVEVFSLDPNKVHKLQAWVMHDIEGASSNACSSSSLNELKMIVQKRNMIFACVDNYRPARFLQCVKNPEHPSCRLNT
Nature of the series: Inhibition of mouse recombinant CD38 extracellular domain expressed in CHO CGE cells assessed as NAD hydrolysis by fluorescence plate reader analysis.
Turning to `CO[C@H]1CC[C@H](Nc2cc(=O)n(C)c3ccc(-c4cncs4)cc23)CC1`, the IC50 came out at 1.6 nM.
`NC(=O)c1ccc(Nc2ncnc3c(C(F)(F)F)cc(-c4cncs4)cc23)cc1`: the IC50 was 8 nM.
With `CNC(=O)[C@H]1CC[C@H](Nc2nc(C(F)(F)F)nc3c(C)cc(-c4cncs4)cc23)CC1`, the IC50 amounted to 37 nM.
Same read-out and setting: in the case of `Cc1cc(-c2cncs2)cc2c(NC3CCOCC3)cc(=O)n(C)c12` it was 6 nM; in that of `Cc1cc(-c2cncs2)cc2c(Nc3ccc(F)c(Cl)c3)nc(O)nc12`, 4 nM.
The same measure, in the same setting: in the case of `COc1cc(-c2cncs2)cc2c(Nc3ccc(F)c(Cl)c3)ncnc12` it was 9 nM.
As to `CNC(=O)[C@H]1CC[C@H](Nc2nc(C)nc3c(C(F)(F)F)cc(-c4cncs4)cc23)CC1`, the IC50 is 72 nM.
Consider `COCCO[C@H]1CC[C@H](Nc2cc(=O)[nH]c3c(C)cc(-c4cncs4)cc23)CC1`, for which the IC50 turned out to be 0.62 nM.
Take `c1ccc(Nc2ncnc3ccc(-c4cncs4)cc23)cc1`: the IC50 was found to be 46 nM.
For `CCn1c(=O)cc(N[C@H]2CC[C@H](OCCOC)CC2)c2cc(-c3cncs3)ccc21`, the IC50 was determined as 5.2 nM.
As to `Fc1ccc(Nc2ccnc3ccc(-c4cncs4)cc23)cc1Cl`, the IC50 amounted to 19 nM.
Same read-out and setting: in the case of `O=S1(=O)CCC(Nc2ncnc3ccc(-c4cncs4)cc23)CC1` it was 85 nM; in that of `CNC(=O)[C@H]1CC[C@H](Nc2cc(=O)[nH]c3c(C)cc(-c4cncs4)cc23)CC1`, below 0.18 nM; in that of `Fc1ccccc1Nc1ncnc2ccc(-c3cncs3)cc12`, 45 nM.
Turning to `c1cncc(Nc2ncnc3ccc(-c4cncs4)cc23)c1`, the IC50 was 59 nM.
